≈ marks a conversion by molar mass, not a printed value. Entries after “also recorded” stand apart in the source; their conditions may differ.
Tests used:
Type in all cases: physicochemical
[1] = Static storage at 40° C./75% RH, XRPD and HPLC post storage; conditions: 7 days
[2] = as above; conditions: for stability to storage at 40° C./75% RH (in words): 40° C./75% RH (elevated temperature and humidity); for HPLC purity post storage at 40° C./75% RH: 7 days
How it was run: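 Solids isolated as counter-ion salts of the compound were stored statically at 40° C./75% RH and then re-examined by XRPD for solid-form changes. Chemical purity after storage was checked on an Agilent HP1100/Infinity II 1260 series HPLC system fitted with a diode array detector and running OpenLAB software.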

[3] = Thermodynamic solubility in simulated media and buffers; conditions: 25° C./24 h
Procedure: The thermodynamic solubility for Pattern 11 was determined in 3 simulated media and two buffers. […]

[4] = Heating for 24 h in a vacuum tray dryer, XRPD and HPLC; conditions: 75° C., reduced pressure
Procedure: A polymorphism study of Structure (I) was performed at 75° C., 100° C., 175° C., and 250° C. About 500 mg of Structure (I) Pattern 3 was heated at 75° C. for 24 h in a vacuum tray dryer (VTD) under reduced pressure. Obtained material after heating at 75° C. was analyzed for purity by HPLC and XPRD analysis. […] Additionally, about 500 mg of Structure (I) was heated at 75° C. for 24 h in a VTD under reduced pressure. After 24 h, material was cooled to 25-30° C. under inert atmosphere and analyzed for purity by HPLC and XRPD.
About 500 mg of Structure (I) was heated at 100° C. for 24 h in a VTD under reduced pressure. Obtained material after heating at 100° C. was analyzed for purity by HPLC and XPRD. […] Additionally, about 500 mg of Structure (I) was heated at 100° C. for 24 h in a VTD under reduced pressure. After 24 h material was cooled to 25-30° C. under inert atmosphere. Obtained material was analyzed for purity by HPLC and XPRD.
Obtained material after heating at 175° C. was analyzed for purity by HPLC and XPRD. […] After 24 h, material was cooled to 25-30° C. under inert atmosphere. Obtained material was analyzed for purity by HPLC and XPRD.
About 500 mg of Structure (I) was heated at 250° C. for 24 h in a VTD. Obtained material after heating at 250° C. was analyzed for purity by HPLC and XPRD.

[5] = Thermodynamic solubility in simulated media and buffers; conditions: listed as Structure (I) Pattern 3
[6] = Static storage at 25° C./97% RH, XRPD and HPLC post storage; conditions: 8 days, listed as Lot B Sample 1
[7] = LogD
[8] = Variable temperature XRPD (VT-XRPD)
Text: XRPD diffractograms were collected on a PANalytical Empyrean diffractometer using Cu Kα radiation (45 kV, 40 mA, λ=1.544398 Å) in reflection geometry. The instrument was fitted with an Anton Paar CHC plus+ stage fitted with graphite/Kapton windows and equipped with air cooling coupled or a low vacuum pump system using an Edwards RV3 pump. A programmable divergence slit (in automatic mode), with a 10 mm fixed incident beam mask, Ni filter and 0.04 rad Soller slits were used on the incident beam. A PIXcel3D detector, placed on the diffracted beam, was fitted with a programmable anti-scatter slit (in automatic mode) and 0.04 rad Soller slits.
For variable temperature (VT-XRPD) experiments the samples were prepared and analyzed in an Anton Paar chromed sample holder. The sample chamber was under ambient atmosphere and a heating/cooling rate of 10° C./min was used with a 2 min isothermal hold before the measurement started. The measurement parameters are as per the standard screening data collection method (detailed above). Measurements were taken at the following temperatures: 25, 80, 170, 250, and 25° C.

XRPD post storage at 40° C./75% RH ([1]; listed as Lot B Sample 1): Unchanged by XRPD | stability to storage at 40° C./75% RH (in words) [2]: good stability to storage | stability to storage at 40° C./75% RH (in words) ([2]; listed as Lot B): remained unchanged | HPLC purity post storage at 40° C./75% RH ([2]; 40° C./75% RH, listed as 9-5): 98.5% | HPLC purity post storage at 40° C./75% RH ([2]; 40° C./75% RH, listed as Lot B Sample 1): 98.8% | change of chemical purity on storage at 40° C./75% RH (in words) ([2]; 40° C./75% RH, listed as 9-5): small decrease in chemical purity | Solubility FaSSGF ([3]; FaSSGF, listed as Structure (I) Pattern 3): 0.026 mg/mL (≈ 71 µM) | Solubility FaSSIF ([3]; FaSSIF, listed as Lot B Sample 2): FaSSIF-0.0016 mg/mL | Solubility FeSSIF ([3]; FeSSIF, listed as Lot B Sample 2): FeSSIF-0.0060 mg/mL | Solubility pH 2.0 ([3]; pH 2.0 buffer, listed as Lot B Sample 2): pH 2.0-0.012 mg/mL | Solubility pH 7.4 ([3]; pH 7.4 buffer): pH 7.4-0.001 mg/mL | HPLC purity change after heating at 75° C. [4]: no change | XRPD form after heating at 75° C. [4]: remained as Pattern 3 | solubility in simulated fluids and buffers (in words) [5]: poor | HPLC purity after storage at 25° C./97% RH (8 days) [6]: 98.5% | XRPD after storage at 25° C./97% RH (8 days) [6]: Unchanged by XRPD | logD [7]: 3.1 | VT-XRPD form at 25-80° C. ([8]; 25-80° C.): 25-80° C.: Pattern 3 | VT-XRPD form at 175° C. [8]: Pattern 10 was again observed | VT-XRPD form at 175° C. ([8]; listed as Lot B Sample 1): 175° C.: Pattern 10 | VT-XRPD form at 250° C. ([8]; 250° C., listed as Lot B Sample 1): 250° C.: Patterns 10 and 11 | VT-XRPD form on cooling to 25° C. ([8]; cooling to 25° C.): Cooling to 25° C.: Patterns 11 and 3
SMILES: Cc1cc(Nc2cc(N)ncn2)c(=O)n2c1C(=O)NC21CCC2(CC2)CC1 [Pattern 3]
XRPD post storage at 40° C./75% RH ([1]; listed as 9-5): remained unchanged by XRPD; also recorded: Free Form Pattern 3
